These results are taken from patent US5985926A, “Method for inhibiting intracellular viral replication” (Cell Therapeutics, Inc., priority 1997, dated 1999).

Experiment [1] relates to CMV promoter in 293-EBNA cells. Put plainly: AP reporter gene expression from CMV promoter, 293-EBNA cells stably transfected with pCMV.AP. The experiment is classed as cell-based, human cytomegalovirus; human cells. The procedure, abridged: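 293-EBNA cells carrying episomal pCMV.AP, expressing secreted placental alkaline phosphatase from the CMV enhancer/promoter, treated with various compound concentrations. Reporter expression read as change in A405 of conditioned medium with substrate such as ortho-nitrophenol phosphate.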
For orientation: A reporter such as luciferase makes a cellular process visible.

In another experiment the test system is AP mRNA in 293tat cells. The experiment in a line: AP mRNA level in 293tat cells, Northern blot. The class given is cell-based, human. The conditions noted are these: with TNF-α or IL-1β. The protocol:
Nuclear extracts (A) from 293tat cells were tested by EMSA for activation of NFκB. A radiolabeled 40-mer covering the NFκB sequences in the HIV promoter was used as a probe. Cells were incubated with CT2576 at 12 μM, human TNF-α at 40 ng/ml or IL-1β at 1 ng/ml, or pre-incubated for 30 min. with CT2576 and then stimulated with TNF-α or IL-1β for 18 hr prior to making extracts. RNA was extracted from 293tat cells (B) after treatment with CT2576 without or with TNF-α or IL-1β for 18 hr. Northern blots analysis were performed using probes derived from AP cDNA and G3PDH cDNA as a control for normalization of mRNA level. AP activity was determined in cell supernatants from the various samples.
NFκB binding activity in nuclear extracts (Dignam et al., Nucleic Acids Res. 11:1475-1489, 1983) of cells was measured by electrophoretic mobility-shift assay (EMSA) (Carthew et al., Cell 43:439-448, 1985) using 5'-labeled double-stranded synthetic DNA with two NF-κB motifs. Northern blot analysis was performed with total RNA run on 1% agarose/formaldehyde gel and probed with ^32 P-labeled cDNA of AP and glyceraldehyde-3-phosphate dehydrogenase (G3PDH).

Experiment [2] has as its system PA (phosphatidic acid) formation in tat-transfected and tar-transfected cells. The experiment in a line: PA mass / myrPA formation in serum-stimulated EB293, 293tat and 293tar cells. The class given is cell-based, human. The procedure: Transformed and serum-stimulated cells were measured for total PA mass according to the methods described herein. […] The columns in FIG. 18 represent: (1) EB293 cells plus serum, (2) EB293 cells plus serum plus CT3556 (10 μM.), (3) 293tat cells plus serum, (4) 293tat cells plus serum plus CT3556 (10 μM.), (5) 293tar cells plus serum, and (6) 293tar cells plus serum plus CT3556 (10 μM.).
This procedure begins with those cells that would be normally infected with a virus, such as a retrovirus. However, it is not necessary to utilize a cell line containing a retroviral genome, such as U1 cells. In view of the necessity to utilize containment facilities when using an infected cell line, it is preferable to utilize a macrophage cell line that is not infected. Examples of appropriate macrophage cell lines include, U937, THP1, U1, and P288s (available from standard sources, such as ATCC). The cells are stimulated with a stimulant with or without a candidate drug. Examples of stimulants include 3-5% serum, such as fetal calf serum, or tumor necrosis factor (TNF) (e.g., 20 ng/ml) both of which are standard laboratory reagents. After a time course (within 5 minutes, preferably within 1 minute), the cells are immersed in ice cold methanol to stop any cellular signaling reactions.
One must first quantitatively and qualitatively separate PAs from the other lipids found in serum by a chemical extraction of lipids and high performance liquid chromatography (HPLC) to separate and detect PAs. Chemical extraction can be accomplished, for example, by the method of Bligh et al. (Canadian J. Biochem. Physiol. 37:911-917, 1959) or that of Folch et al. (J. Biol. Chem. 226:497-509, 1957). Briefly, the method of Bligh et al. involves an organic extraction of lipids from biological tissue homogenates or fluids. One volume of sample and three volumes of methanol:chloroform (2:1) are vigorously shaken for 2 min. One volume of chloroform is added and then shaken vigorously for 30 sec. One volume of water is added and then shaken vigorously for 30 sec. The mixture is filtered and the upper aqueous layer is discarded. The lower organic layer contains a mixture of lipid classes. The method of Folch et al. involves the extraction of lipids from biological tissue homogenates or body fluids. One volume of sample plus 20 volumes of chloroform:methanol (2:1) are vigorously shaken for 2 min. The mixture is filtered and an amount of 0.1 N KCl equal to 20% of the extraction mixture volume is added and the mixture is shaken vigorously for 2 min. The aqueous and organic phases are allowed to separate. The upper aqueous layer is discarded. The lower organic layer contains a mixture of lipid classes. Free fatty acids and neutral lipids can be separated from phospholipids by normal phase high performance liquid chromatography (HPLC) by modifying the method of Van Kessel et al. (Biochim et Biophys Acta 486:524-530, 1977). This method involves separation of lipids into their major classes by normal phase (silica) high performance liquid chromatography (HPLC). A 5 micron, 25 cm×0.45 cm silica HPLC column is connected to a binary solvent delivery system followed with a UV detector. The lipid sample is injected on the column and a solvent gradient is run at 1.0 ml/min. […]
Transformed and serum-stimulated cells were measured for total PA mass according to the methods described herein. […]

Each structure is given as a SMILES string. Entries after “also recorded” stand apart in the source; their conditions may differ.

`CCCCCCCCNCC(O)CCCCCCCCCN1C(=O)CCN(C)C1=O` (centres unmarked) [CT1829, 3-(11-octylamino-10-hydroxyundecyl)-1-methyldihydrouracil]: the IC50 in experiment [1] (Homo sapiens, 293-EBNA, FIG. 8, read-out: concentration inhibiting AP activity by 50% (CMV assay)) is 2 to 6 µM. The “inhibition of AP expression (CMV promoter)” value in experiment [1] (in words) was “inhibit CMV promoter driven expression”.

On to `CCCCCCCCNCC(O)CCCCCCCCCn1c(=O)c2c(ncn2C)n(C)c1=O` (centres unmarked) [CT2576, 1-(11-octylamino-10-hydroxyundecyl)-3,7-dimethylxanthine], for which the “AP transcript / mRNA steady-state level” value in the experiment with AP mRNA in 293tat cells is listed as “increase in mRNA level; also recorded: did not block expression at the transcription stage”. The “inhibition of myrPA formation in stimulated cells” value in experiment [2] (10 μM, tat-transfected cells stimulated with serum) is reported as “inhibited myrPA formation in stimulated cells”. In addition, the “total PA mass, dose response” value in experiment [2] (EB293 cells with tat expression plasmid, serum, 0 to one minute (FIG. 20)) is on record as “dose response relationship”.
